Laboratory results reported in ChEMBL document CHEMBL4706576, “Tricyclic heterocycles display diverse sensitivity to the A147T TSPO polymorphism” (Eur J Med Chem, 2020).

Key:
Translocator protein = Translocator protein (Homo sapiens, UniProt P30536); assay: Displacement of [3H]-PK11195 from wild type TSPO (unknown origin) expressed in human HEK293T cells assessed as inhibitory constant incubated for 90 mins by microbeta scintillation counting method; type: cell-based
Homo sapiens = organism: Homo sapiens; assay: Selectivity index, ratio of Ki for TSPO A147T mutant (unknown origin) to Ki for wild type TSPO (unknown origin)

Sequence of Translocator protein (P30536 whole entry): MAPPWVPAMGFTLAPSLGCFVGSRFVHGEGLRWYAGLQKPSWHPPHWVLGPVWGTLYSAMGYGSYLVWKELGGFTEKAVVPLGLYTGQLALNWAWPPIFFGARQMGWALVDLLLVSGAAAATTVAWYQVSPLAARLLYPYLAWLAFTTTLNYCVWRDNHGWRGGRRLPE

SMILES | Ki (Translocator protein) [nM] | Ratio Ki (Homo sapiens)
CN(C)C(=O)CN1Cc2cnn(C)c2Nc2ccccc21 | > 10000 | –
CCN(CC)C(=O)CN1c2ccccc2NC(=O)c2ccccc21 | 200 | 11.8
CN(C)C(=O)CN1c2ccccc2NC(=O)c2ccccc21 | > 10000 | –
CCN(CC)C(=O)CN1Cc2cnn(C)c2Nc2ccccc21 | 493 | 4.6
CCN(CC)C(=O)Cn1c2ccccc2c2ccccc21 | – | 5.9
CCN(Cc1ccccc1)C(=O)CN1Cc2cnn(C)c2Nc2ccccc21 | 41.3 | 5.5

The remaining lines, values ahead:

Ki (Translocator protein) [nM] | Ratio Ki (Homo sapiens) | SMILES
15.8 | 6.2 | CCN(Cc1ccccc1)C(=O)CN1c2ccccc2NC(=O)c2ccccc21
9.3 | 2.9 | COc1ccc(-c2nn3c(C)cc(C)nc3c2CC(=O)N(C)Cc2ccccc2)cc1
338 | 1.7 | COc1ccc(-c2nn3c(C)cc(C)nc3c2CC(=O)N(C)C)cc1
6.2 | 13 | CCN(Cc1ccccc1)C(=O)Cc1c(-c2ccc(OC)cc2)nn2c(C)cc(C)nc12
41.3 | 4.8 | CN(Cc1ccccc1)C(=O)CN1Cc2cnn(C)c2Nc2ccccc21
76.8 | 2.1 | CN(Cc1ccccc1)C(=O)CN1c2ccccc2NC(=O)c2ccccc21
– | 2.5 | CN(Cc1ccccc1)C(=O)Cn1c2ccccc2c2ccccc21
– | 5 | CCN(Cc1ccccc1)C(=O)Cn1c2ccccc2c2ccccc21
